From ChEMBL document CHEMBL4402585 (J Med Chem, 2020)

Experiments:
[1] = biological target: Histone acetyltransferase p300 (Homo sapiens, UniProt Q09472); experiment: Inhibition of MSGRGK(Ac)-GGK(Ac)GLGK(Ac)GGAKRHR-biotin binding to EP300 (1040 to 1160 residues) (unknown origin) expressed in Escherichia coli BL21 (DE3) by Alphascreen assay
[2] = biological target: T1, Bromodomain-containing protein 4 (Homo sapiens, UniProt O60885)
Description: Binding affinity to N-terminal His6-tagged BRD4 bromodomain 1 (49 to 170 residues) (unknown origin) expressed in Escherichia coli BL21 (DE3) assessed as change in melting temperature at 1:100 molar ratio by SYPRO orange dye based fluorescence thermal shift assay

[3] = biological target: T1, Bromodomain-containing protein 4; experiment: (§1) Inhibition of SGRG-K(Ac)-GG-K(Ac)-GLG-K(Ac)-GGA-K(Ac)-RHRKVGG-K-Biotin binding to N-terminal His6-tagged BRD4 bromodomain 1 (49 to 170 residues) (unknown origin) expressed in Escherichia coli BL21 (DE3) preincubated for 15 mins followed by biotin-labeled H4 peptide addition and measured after 10 mins by Alphascreen assay
[4] = biological target: T1, Bromodomain-containing protein 4; experiment: as §1, with “2 (344” for “1 (49”, “455” for “170”
MV4-11 = experiment: Antiproliferative activity against human MV4-11 cells assessed as reduction in cell viability measured after 72 hrs by Celltitre-glo luminescence assay; format: functional, cell-based; conditions: MV4-11, 72 h
[5] = Clearance in human liver microsomes at 0.1 uM preincubated for 10 mins followed by NADPH addition and measured up to 60 mins by LC-MS/MS analysis; format: ADME, Microsome; conditions: 1 h
[6] = Clearance in rat liver microsomes at 0.1 uM preincubated for 10 mins followed by NADPH addition and measured up to 60 mins by LC-MS/MS analysis; format: ADME, Microsome; conditions: 1 h
[7] = Clearance in mouse liver microsomes at 0.1 uM preincubated for 10 mins followed by NADPH addition and measured up to 60 mins by LC-MS/MS analysis; format: ADME, Microsome; conditions: 1 h
[8] = Half life in human liver microsomes at 0.1 uM preincubated for 10 mins followed by NADPH addition and measured up to 60 mins by LC-MS/MS analysis; format: ADME, Microsome
[9] = Half life in rat liver microsomes at 0.1 uM preincubated for 10 mins followed by NADPH addition and measured up to 60 mins by LC-MS/MS analysis; format: ADME, Microsome
[10] = Half life in mouse liver microsomes at 0.1 uM preincubated for 10 mins followed by NADPH addition and measured up to 60 mins by LC-MS/MS analysis; format: ADME, Microsome
[11] = Half life in Sprague-Dawley rat at 3 mg/kg, po by LC-MS/MS analysis; format: ADME, organism-based; conditions: in vivo
[12] = Cmax in Sprague-Dawley rat at 3 mg/kg, po by LC-MS/MS analysis; format: ADME, organism-based; design: dose 3 mg/kg, route oral; conditions: in vivo
[13] = AUC (0 to t) in Sprague-Dawley rat at 3 mg/kg, po by LC-MS/MS analysis; format: ADME, organism-based; conditions: in vivo
[14] = Oral bioavailability in Sprague-Dawley rat at 3 mg/kg by LC-MS/MS analysis; format: ADME, organism-based; conditions: in vivo
[15] = Half life in Sprague-Dawley rat at 1 mg/kg, iv by LC-MS/MS analysis; format: ADME, organism-based; conditions: in vivo
[16] = Volume of distribution at steady state in Sprague-Dawley rat at 1 mg/kg, iv by LC-MS/MS analysis; format: ADME, organism-based; conditions: in vivo, read-out: Vdss
[17] = AUC (0 to t) in Sprague-Dawley rat at 1 mg/kg, iv by LC-MS/MS analysis; format: ADME, organism-based; conditions: in vivo
[18] = Clearance in Sprague-Dawley rat at 1 mg/kg, iv by LC-MS/MS analysis; format: ADME, organism-based; conditions: in vivo

Sequence of Histone acetyltransferase p300 (Q09472 whole entry, the tested form may be a part): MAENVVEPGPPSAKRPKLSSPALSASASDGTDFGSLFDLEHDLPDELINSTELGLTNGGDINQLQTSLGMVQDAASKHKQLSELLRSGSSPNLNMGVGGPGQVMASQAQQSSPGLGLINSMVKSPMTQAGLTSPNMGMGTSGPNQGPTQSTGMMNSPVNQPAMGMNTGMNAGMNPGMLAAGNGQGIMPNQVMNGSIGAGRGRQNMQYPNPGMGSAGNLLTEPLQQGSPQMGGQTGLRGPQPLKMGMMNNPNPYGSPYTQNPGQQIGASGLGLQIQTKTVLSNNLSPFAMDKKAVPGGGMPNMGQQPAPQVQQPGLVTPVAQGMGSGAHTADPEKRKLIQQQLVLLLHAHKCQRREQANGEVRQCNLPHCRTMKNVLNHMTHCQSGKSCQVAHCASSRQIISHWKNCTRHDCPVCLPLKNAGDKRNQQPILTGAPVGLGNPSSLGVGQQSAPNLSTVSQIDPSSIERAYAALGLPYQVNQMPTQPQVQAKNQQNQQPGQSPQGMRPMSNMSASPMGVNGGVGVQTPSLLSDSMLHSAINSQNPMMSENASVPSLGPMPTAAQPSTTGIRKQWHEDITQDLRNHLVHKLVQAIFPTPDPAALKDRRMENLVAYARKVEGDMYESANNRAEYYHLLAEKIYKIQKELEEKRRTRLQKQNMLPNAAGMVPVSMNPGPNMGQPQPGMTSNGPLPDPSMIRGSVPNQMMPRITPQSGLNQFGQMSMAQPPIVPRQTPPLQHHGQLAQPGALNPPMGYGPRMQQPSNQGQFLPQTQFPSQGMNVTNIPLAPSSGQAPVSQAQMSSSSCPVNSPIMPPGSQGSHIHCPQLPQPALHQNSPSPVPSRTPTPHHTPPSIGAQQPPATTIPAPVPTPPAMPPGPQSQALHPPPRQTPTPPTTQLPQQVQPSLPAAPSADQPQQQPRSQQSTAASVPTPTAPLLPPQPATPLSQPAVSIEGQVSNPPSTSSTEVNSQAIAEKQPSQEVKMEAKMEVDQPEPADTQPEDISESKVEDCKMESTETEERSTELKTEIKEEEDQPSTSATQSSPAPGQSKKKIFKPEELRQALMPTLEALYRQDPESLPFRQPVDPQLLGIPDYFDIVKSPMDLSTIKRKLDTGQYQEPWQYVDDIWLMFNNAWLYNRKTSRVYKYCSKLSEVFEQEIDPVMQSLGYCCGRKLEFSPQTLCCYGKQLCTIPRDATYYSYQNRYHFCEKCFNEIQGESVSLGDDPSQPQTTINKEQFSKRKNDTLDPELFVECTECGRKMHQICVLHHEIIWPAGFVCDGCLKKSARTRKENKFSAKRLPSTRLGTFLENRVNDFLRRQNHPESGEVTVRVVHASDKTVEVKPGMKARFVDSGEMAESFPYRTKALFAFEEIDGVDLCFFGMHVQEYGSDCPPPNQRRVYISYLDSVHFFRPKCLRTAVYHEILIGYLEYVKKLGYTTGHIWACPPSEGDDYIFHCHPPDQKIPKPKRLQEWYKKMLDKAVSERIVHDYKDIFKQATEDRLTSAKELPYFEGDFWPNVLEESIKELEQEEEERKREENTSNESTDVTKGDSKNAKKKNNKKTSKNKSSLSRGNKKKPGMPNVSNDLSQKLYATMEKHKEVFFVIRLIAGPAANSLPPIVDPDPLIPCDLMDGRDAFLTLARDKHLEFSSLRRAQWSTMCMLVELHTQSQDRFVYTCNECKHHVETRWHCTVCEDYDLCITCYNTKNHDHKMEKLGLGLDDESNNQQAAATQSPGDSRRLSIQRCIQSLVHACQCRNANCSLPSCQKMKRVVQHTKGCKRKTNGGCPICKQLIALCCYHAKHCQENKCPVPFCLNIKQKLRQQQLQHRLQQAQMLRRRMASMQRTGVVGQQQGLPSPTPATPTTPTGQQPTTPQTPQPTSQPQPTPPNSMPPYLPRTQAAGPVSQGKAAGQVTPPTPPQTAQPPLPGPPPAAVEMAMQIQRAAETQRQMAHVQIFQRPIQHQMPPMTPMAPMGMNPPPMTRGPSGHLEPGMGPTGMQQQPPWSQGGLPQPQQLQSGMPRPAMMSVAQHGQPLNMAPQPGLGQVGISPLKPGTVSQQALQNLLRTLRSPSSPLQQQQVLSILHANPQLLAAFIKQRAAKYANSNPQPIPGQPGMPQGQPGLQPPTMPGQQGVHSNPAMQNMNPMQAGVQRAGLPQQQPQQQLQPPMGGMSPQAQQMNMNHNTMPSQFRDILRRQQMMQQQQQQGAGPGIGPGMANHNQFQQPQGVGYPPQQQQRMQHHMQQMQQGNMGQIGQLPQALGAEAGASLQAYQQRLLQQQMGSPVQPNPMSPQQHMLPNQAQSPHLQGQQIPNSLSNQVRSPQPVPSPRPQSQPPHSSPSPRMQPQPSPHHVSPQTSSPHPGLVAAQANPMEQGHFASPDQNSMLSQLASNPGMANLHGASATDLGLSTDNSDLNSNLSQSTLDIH

Compound | IC50 [1] | ΔTm [2] | IC50 [3] | IC50 [4] | IC50 (MV4-11) | also measured
Cc1cc(-c2cc(NS(C)(=O)=O)ccc2Sc2ccccc2)n2cc[nH]c(=O)c12 | > 100000 nM | > 1 °C | – | – | – | –
CCS(=O)(=O)Cc1ccc(Oc2ccc(F)cc2F)c(-c2cc(C)c3c(=O)[nH]ccn23)c1 | 18600 nM | > 1 °C | 4.7 nM | 7.4 nM | 6.5 nM | Microsomal intrinsic clearance [5]: 46 mL/min/g; Intrinsic clearance [6]: 61.9 mL/min/g; Microsomal intrinsic clearance [7]: 175 mL/min/g; half-life at 0.1 µM [8]: 46.3 min; half-life at 0.1 µM [9]: 33.9 min; half-life at 0.1 µM [10]: 12 min
Cc1cc(-c2cc(NS(C)(=O)=O)ccc2Oc2ccc(F)cc2F)n2cc[nH]c(=O)c12 | 17800 nM | > 1 °C | – | – | 36.6 nM | Microsomal intrinsic clearance [5]: 36.2 mL/min/g; Intrinsic clearance [6]: 327 mL/min/g; Microsomal intrinsic clearance [7]: 141 mL/min/g; half-life at 0.1 µM [8]: 58.1 min; half-life at 0.1 µM [9]: 6.4 min; half-life at 0.1 µM [10]: 14.9 min
Cc1cc(-c2cc(NS(C)(=O)=O)ccc2Oc2ccccc2)n2ccn(C)c(=O)c12 | – | > 1 °C | > 2000 nM | > 2000 nM | – | –
Cc1cc(Br)n2cc[nH]c(=O)c12 | – | 1.9 °C | – | – | – | –
Cc1cc(-c2cc(NS(C)(=O)=O)ccc2OCC(C)(C)C)n2cc[nH]c(=O)c12 | 26900 nM | > 1 °C | > 1000 nM | 669 nM | – | –
Cc1cc(-c2cc(NS(C)(=O)=O)ccc2Cc2ccccc2)n2cc[nH]c(=O)c12 | 15600 nM | > 1 °C | > 1000 nM | > 1000 nM | – | –
Cc1cc(-c2cc(NS(C)(=O)=O)cnc2Oc2ccc(F)cc2F)n2cc[nH]c(=O)c12 | > 5000 nM | > 1 °C | – | – | 537 nM | –
Cc1cc(-c2cc(NS(C)(=O)=O)ccc2OCC2CC2)n2cc[nH]c(=O)c12 | 25100 nM | > 1 °C | 78.6 nM | 77.2 nM | 185 nM | –
Cc1cc(-c2cc(S(=O)(=O)NC(C)(C)C)ccc2Oc2ccc(F)cc2F)n2cc[nH]c(=O)c12 | > 100000 nM | > 1 °C | 438 nM | 420 nM | – | –
Cc1cc(-c2cc(NS(C)(=O)=O)ccc2Oc2ccc(Cl)cc2)n2cc[nH]c(=O)c12 | 57000 nM | > 1 °C | 128 nM | 178 nM | 118 nM | –
Cc1cc(-c2cc(CS(C)(=O)=O)cnc2Oc2ccc(F)cc2F)n2cc[nH]c(=O)c12 | 2200 nM | > 1 °C | 7.4 nM | 3.5 nM | 14.2 nM | Microsomal intrinsic clearance [5]: 26.1 mL/min/g; Intrinsic clearance [6]: 64.6 mL/min/g; Microsomal intrinsic clearance [7]: 35.7 mL/min/g; half-life at 0.1 µM [8]: 80.4 min; half-life at 0.1 µM [9]: 32.5 min; half-life at 0.1 µM [10]: 58.5 min; half-life [11]: 90 min; Cmax [12]: 160 ng/mL; AUC(0-t) [13]: 520 ng·h/mL; bioavailability [14]: 37.9%; half-life [15]: 48 min; Vd [16]: 1.9 L/kg; AUC(0-t) [17]: 457 ng·h/mL; clearance [18]: 37.5 mL/min/kg
Cc1cc(-c2cc(NS(C)(=O)=O)ccc2OC2CCCCC2)n2cc[nH]c(=O)c12 | 5400 nM | > 1 °C | – | – | 4.9 nM | Microsomal intrinsic clearance [5]: 752 mL/min/g; Intrinsic clearance [6]: 2137 mL/min/g; Microsomal intrinsic clearance [7]: 333 mL/min/g; half-life at 0.1 µM [8]: 2.7 min; half-life at 0.1 µM [9]: 0.9 min; half-life at 0.1 µM [10]: 6.3 min
Cc1cc(-c2cc(S(C)(=O)=O)ccc2Oc2ccc(F)cc2F)n2cc[nH]c(=O)c12 | > 33000 nM | > 1 °C | 134 nM | 117 nM | – | –
Cc1cc(-c2cc(NS(C)(=O)=O)ccc2Oc2ccccn2)n2cc[nH]c(=O)c12 | 12600 nM | > 1 °C | 27.3 nM | 25.9 nM | 211 nM | –
